Laboratory results reported in US10942183B2, “Methods of detecting progesterone receptor and of detecting an expression level” (REGENTS OF THE UNIVERSITY OF MINNESOTA, priority 2017, dated 2021).

Columns and labels:
BT474 cells = assay: Mammosphere formation in unmodified HER2+ BT474 cells; assay type: cell-based
Method: (§1) Primary Mammospheres: Adherent cells were washed with PBS and dissociated enzymatically in 0.25% trypsin-EDTA (Invitrogen Corporation, Carlsbad, Calif.). Cells were sieved through a 40-μm sieve (BD FALCON, BD Biosciences, Bedford, Mass.) and analyzed microscopically for single-cellularity. Single cells were plated in ultra-low attachment plates (Corning, Inc., Corning, N.Y.) and cultured in a humid incubator. […] Mammosphere Forming Efficiency (MFE) % was calculated by the number of mammospheres per well/number of cells seeded per well.
(§2) Secondary Mammospheres: Primary mammospheres were collected by centrifugation (5 min, 1000 rpm), and dissociated enzymatically in 0.25% typsin-EDTA. Cells were sieved through a 40-μm tip strainer (Bel-Art SP Scienceware, South Wayne, N.J.) and analyzed microscopically for single-cellularity. […] Mammosphere Forming Efficiency (MFE) % was calculated by the number of mammospheres per well/number of cells seeded per well.
The results were also validated in unmodified ER+/PR+BT474 cells. […] In this “high-kinase” context, PRs are readily phosphorylated on Ser294.

[1] = system: PR Ser294 phosphorylation; assay: Breast tumor explants, phospho-Ser294 PR IHC; assay type: cell-based, human; details: progesterone 10 nM, 2 hours, IHC, n=6
From the text: De-identified breast tumor samples were collected after surgery and immediately processed for tissue explant maintenance on sponges in cell culture medium, as previously described (Ravindranathan et al. Nature Communications 2013, 4:1923). Samples were derived from six patients pathologically diagnosed with invasive ductal carcinoma (IDC) and scored positive for ER (94-100%) and PR (1-100%), and negative for HER2 expression. […] In additional experiments, six explants were similarly treated with estrogen or progesterone (2 hours) but in combination with 1 uM U0126 (to inhibit ERKs 1/2) and phospho-Ser294 PR levels were measured by IHC.
ER+ luminal tumors were maintained as explants as above and instead treated with either vehicle or progesterone (10 nM) for 2 hours in the presence or absence of the MEK1/2 inhibitor U0126 (1 nM) prior to IHC staining using specific antibodies for total and phospho-Ser294 PR as well as ER-alpha and phospho-ERK1/2 (n=6; see Methods).

T47D cells = assay: Mammosphere formation in T47D cells; assay type: cell-based, human; details: T47D EV, WT, KR or S294A PR-B; estrogen 1 nM, progesterone 10 nM; 14 days
Method: as §1, with “incubator. Cells were grown in a serum-free mammary epithelial basal medium (MEBM; Lonza Group, Basel, Switzerland) containing 1% B27 Supplement (Invitrogen Corporation, Carlsbad, Calif.), 1% penicillin-streptomycin (Invitrogen Corporation, Carlsbad, Calif.), 5 μg/ml insulin (Invitrogen Corporation, Carlsbad, Calif.), 20 ng/ml EGF (Sigma-Aldrich, St. Louis, Mo.), 1 ng/ml hydrocortisone (Sigma-Aldrich, St. Louis, Mo.), and 100 μM β-mercaptoethanol.” for “incubator.”
as §2, with “well. […]” for “well.”

Compound	effect on basal and progestin-stimulated primary mammosphere formation (BT474 cells; BT474, onapristone 100 or 1000 nM without or with R5020 10 nM)	secondary mammosphere formation (BT474 cells; BT474, onapristone-containing media)	PR Ser294 phosphorylation in tumor explants [1]	total numbers of primary and secondary mammospheres on addition of hormone to culture media (T47D cells)
CN(C)c1ccc([C@H]2C[C@]3(C)[C@@H](CC[C@]3(O)CCCO)[C@@H]3CCC4=CC(=O)CCC4=C32)cc1 [onapristone]	effectively reduced both basal and progestin-stimulated primary mammosphere formation	failed to form	–	–
CC(=O)[C@H]1CC[C@H]2[C@@H]3CCC4=CC(=O)CC[C@]4(C)[C@H]3CC[C@]12C [progesterone]	–	–	induced robust PR Ser294 phosphorylation	had no significant effect on total numbers in any condition
